Entries after “also recorded” stand apart in the source; their conditions may differ.
How the values were obtained:
[1] = target: T1, ETAR in MDA-MB-435 tumor xenografts (Mus musculus, UniProt Q61614); assay: In vivo FMT/FRI imaging of MDA-MB-435 murine xenograft models; parameters: species or system mice
T1 construct: from tissue; host or cells: MDA-MB-435 tumour xenografts in mice (host-derived cells, e.g. endothelial)
T1 sequence (Q61614 21-427): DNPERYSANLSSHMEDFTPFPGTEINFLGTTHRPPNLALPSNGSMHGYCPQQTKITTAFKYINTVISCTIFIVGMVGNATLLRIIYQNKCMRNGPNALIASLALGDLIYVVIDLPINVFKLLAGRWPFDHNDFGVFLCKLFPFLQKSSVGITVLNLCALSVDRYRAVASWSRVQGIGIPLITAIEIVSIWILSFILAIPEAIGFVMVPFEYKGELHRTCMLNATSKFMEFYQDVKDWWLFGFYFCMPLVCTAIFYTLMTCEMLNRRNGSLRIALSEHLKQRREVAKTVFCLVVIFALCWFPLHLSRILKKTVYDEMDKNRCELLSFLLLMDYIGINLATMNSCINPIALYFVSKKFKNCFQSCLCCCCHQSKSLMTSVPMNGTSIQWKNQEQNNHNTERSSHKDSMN
Description: FIG. 7: 3D-FMTexamination of MDA-MB-435 murine xenograft models.

[2] = target: T2, ETA receptor on HT-1080 human fibrosarcoma cells (Homo sapiens, UniProt P25101); assay: In vitro cell binding assay by fluorescence microscopy, HT-1080 cells; type: cell-based; details: for cellular fluorescence signal (fluorescence microscopy): HT-1080 cells, 45 min at 4° C.
T2 construct: The highest amount of protein is found in human fibrosarcoma cells HT-1080; host or cells: HT-1080
T2 sequence (P25101 21-427): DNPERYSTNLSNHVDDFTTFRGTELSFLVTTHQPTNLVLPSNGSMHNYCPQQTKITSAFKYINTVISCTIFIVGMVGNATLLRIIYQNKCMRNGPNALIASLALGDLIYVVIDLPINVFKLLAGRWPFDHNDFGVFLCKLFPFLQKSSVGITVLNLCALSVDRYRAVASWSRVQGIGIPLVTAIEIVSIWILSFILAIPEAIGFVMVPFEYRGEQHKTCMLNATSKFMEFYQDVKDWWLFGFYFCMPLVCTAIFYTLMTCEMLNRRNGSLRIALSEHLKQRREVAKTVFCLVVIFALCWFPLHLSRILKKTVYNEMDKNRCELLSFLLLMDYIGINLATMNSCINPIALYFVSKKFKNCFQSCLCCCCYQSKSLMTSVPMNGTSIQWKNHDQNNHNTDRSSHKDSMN
Experimental: Cell lines and reagents. Human breast adenocarcinoma cell line MCF-7 (ATCC-No. HTB-22), MDA-MB-435 human breast carcinoma cells (ATCC-No. HTB-123) and HT-1080 human fibrosarcoma cells (ATCC-No. CCL-121) were cultured in RPMI 1640 (Invitrogen Corporation, San Diego, USA) supplemented with 10% fetal calf serum, penicillin and streptomycin. Cells were grown routinely in a monolayer culture at 37° C. in a 5% CO2 humidified air atmosphere.
(§1) Cell binding assays. Cells (HT-1080 fibrosarcomas, MDA-MB435 ductal carcinomas, MCF-7 adenocarcinomas) were seeded in 4-well plates (Nunc GmbH & Co. KG, Wiesbaden, Germany) and incubated in culture medium (0.5 ml/well) overnight. For binding studies cells were washed twice with PBS and resuspended in 150 μl binding buffer (20 mM HEPES in PBS with Ca^2+/Mg^2+, 0.2% BSA, 0.1% Glucose, pH 7.4). […] After an incubation period of 45 min at 4° C. cells were washed twice with PBS and were resuspended in binding buffer. […] Cells could be directly visualised by fluorescence microscopy (40× objective, Nikon TE 2000-S, Nikon-Düsseldorf, Germany). The microscope was equipped with a mercury vapour lamp (100 W), 620/775 nm and 545/675 nm (excitation/emission) filters (AHF Analysentechnik, Tbingen, Germany), a Nikon DXM1200F camera and ACT1/DXM1200F software (Nikon, Japan).
(§2) In vitro cell binding assays. […] Binding of the labelled antagonist could be directly analysed by fluorescence microscopy.

[3] = system: ETA receptor on MCF-7 human breast adenocarcinoma cells; assay: In vitro cell binding assay by fluorescence microscopy, MCF-7 cells; details: for cellular fluorescence signal (fluorescence microscopy): 45 min at 4° C., nmol amounts per well
Experimental: Human breast cancer cell line MCF-7 (ATCC-No. HTB-22) was cultured in RPMI 1640 (Invitrogen Corporation, San Diego, USA) supplemented with 10% fetal calf serum, penicillin and streptomycin. Cells were grown routinely in a monolayer culture at 37° C. in a 5% CO2 humidified air atmosphere. Antibodies were murine IgGs and specific for the endothelin A receptor.
Cells were seeded in 4-well plates (Nunc, Wiesbaden) and incubated in culture medium (0.5 ml/well) overnight. For binding studies cells were washed twice with PBS and resuspended in 150 μl binding-buffer (20 mM HEPES in PBS with Ca^2+/Mg^2+, 0.2% BSA, 0.1% Glucose, pH 7.4). […] After an incubation period of 45 min at 4° C. cells were washed twice with PBS and were resuspended in binding buffer. For competition binding studies free ETAR antagonist (final amount 50 nmol) or ETAR antibodies (1.3 μg) were added to each well for 45 min at 4° C. Cells could be directly visualized by fluorescence microscopy (40× and 60× objective, Nikon TE 2000-S, Nikon-Düsseldorf). The microscope was equipped with a mercury vapour lamp (100 W), 620/775 nm and 545/675 nm (excitation/emission) filters (AHF Analysentechnik, Tübingen), a Nikon DXM1200F camera and ACT1/DXM1200F software (Nikon, Japan).
Binding of the labelled antagonist could be directly analyzed by fluorescence microscopy.
as §1, §2

[4] = system: ETA-negative MDA-MB-435 human breast carcinoma cells; assay: In vitro cell binding assay by fluorescence microscopy, MDA-MB-435 cells; type: cell-based; details: 45 min at 4° C.
Description: In vitro cell binding assays.

[5] = system: ETAR in MCF-7 tumor xenografts; assay: In vivo FMT/FRI imaging of MCF-7 tumor xenografts; parameters: species or system mice
myocardial ETAR = target: T3, myocardial ETAR (Mus musculus, UniProt Q61614); assay: In vivo FRI imaging of myocardial ETAR expression; details: mice, pre-dosing with PD 156707
T3 construct: from tissue; host or cells: mouse myocardium, in vivo
T3 sequence (Q61614 21-427): T1 sequence (Q61614 21-427)
Experimental: FIG. 6: In vivo application of the targeted fluorophore for imaging of myocardial ETAR—expression. Mice were injected with the targeted fluorophore with (middle) and without (right) pre-dosing with PD 156707. The left speciment is a saline injected control.

endothelin receptors [6] = details: literature value printed for comparison (lit.; ref. 37); cited from earlier work
endothelin receptors [7] = assay: Competition binding studies with [125I]ET-1 on mouse ventricular membrane preparations; details: read-out: dissociation constant KD; Scatchard transformation of saturation data, mouse ventricular membranes
Experimental: Microsomes were prepared by homogenizing ventricles from DBA mice at 4° C. for 90 seconds in 1 ml of buffer A (10 mM EDTA, 10 mM HEPES, 0.1 mM benzamidine, pH 7.4), using a Polytron PT 3000 (Kinematica, Luceme, Switzerland). Homogenates were centrifuged at 45,000× gmax for 15 min at 4° C. The pellets were resuspended in 1 ml of buffer B (1 mM EDTA, 10 mM HEPES, 0.1 mM benzamidine, pH 7.4) and recentrifuged at 45,000× gmax for 15 min at 4° C. The pellets were resuspended in 1 ml of buffer B and centrifuged at 10,000× gmax for 10 min at 4° C. The supernatants were recentrifuged at 45,000×gmax for 15 min at 4° C. […]
For competition binding studies, the prepared membranes were resuspended in buffer D (10 mM Tris.HCl, 154 mM NaCl, 0.1 mM ascorbic acid, pH 7.4) at 0° C. […] The membrane bound radioactivity was determined in a γ-scintillation counter. Competition binding curves were analyzed by nonlinear regression analysis using the XMGRACE programme (Linux software).
Different concentrations of the prepared compound (1.0 pM-100 μM) were incubated with 40 pM [^125I]ET-1 and a fixed amount of mouse ventricular membrane preparation (10 μg) at 37° C. for 4 h. The membrane bound radioactivity was evaluated using a γ-scintillation counter and standardized on percentage of [^125I]ET-1. […]

[8] = MDA-MB-435, block (100 nmol PD 156707 10 minutes before), 1 h
[9] = MDA-MB-435, block (100 nmol PD 156707 10 minutes before), 3 h
[10] = MDA-MB-435, block (100 nmol PD 156707 10 minutes before), 5 h
[11] = MDA-MB-435, block (100 nmol PD 156707 10 minutes before), 24 h
[12] = MDA-MB-435, nativ, 24 h, 2 nmol

For CC[N+]1=C(/C=C/C=C/C=C2/N(CCCCCC(=O)NCCOCCOCCOCCOc3cc(CC4=C(c5ccc6c(c5)OCO6)C(=O)OC4(O)c4ccc(OC)cc4)cc(OC)c3OC)c3ccc4c(S(=O)(=O)O)cc(S(=O)(=O)O)cc4c3C2(C)C)C(C)(C)c2c1ccc1c(S(=O)(=O)O)cc(S(=O)(=O)O)cc21 (stereo not drawn) [ETAR-Cy 5.5], the “fluorescence signal of tumor xenografts by FRI and FMT” value ([1]; MDA-MB 435 xenografts, 2 nmol i.v.) was “high fluorescence signal yields”, the “mean (FMT-data)” value [1, 8] was 253.57 and the “pmol (FMT-data)” value [1, 8] was 22.14 pmol. The “mean (FMT-data)” value [1, 9] was 323.25, the “pmol (FMT-data)” value [1, 9] was 17.25 pmol and the “mean (FMT-data)” value [1, 10] was 343.78. The “pmol (FMT-data)” value [1, 10] was 19.67 pmol, the “mean (FMT-data)” value [1, 11] was 273.80 and the “pmol (FMT-data)” value [1, 11] was 34.80 pmol. For the same compound, the “mean (FMT-data)” value ([1]; MDA-MB-435, nativ, 1 h, 2 nmol) was 356.89, the “pmol (FMT-data)” value ([1]; MDA-MB-435, nativ, 1 h, 2 nmol) was 40.56 pmol and the “mean (FMT-data)” value ([1]; MDA-MB-435, nativ, 3 h, 2 nmol) was 326.33. The “pmol (FMT-data)” value ([1]; MDA-MB-435, nativ, 3 h, 2 nmol) was 27.67 pmol, the “mean (FMT-data)” value ([1]; MDA-MB-435, nativ, 5 h, 2 nmol) was 418.17 and the “pmol (FMT-data)” value ([1]; MDA-MB-435, nativ, 5 h, 2 nmol) was 55.50 pmol. The “mean (FMT-data)” value [1, 12] was 444.38, the “pmol (FMT-data)” value [1, 12] was 63.57 pmol and the “cellular fluorescence signal (fluorescence microscopy)” value (“cellular fluorescence signal” for short) ([2]; listed as 17) was “higher fluorescence signal than human breast cancer cell line MCF-7; also recorded: highest cellular fluorescence”. For the same compound, the “cellular fluorescence signal” value [3] was “high amounts of cellular fluorescence”, the “cellular fluorescence signal” value ([3]; listed as 9) was “specific visualization of the ETA receptor” and the “cellular fluorescence signal” value ([3]; listed as 17) was “allowed for visualisation of the ETA receptor; also recorded: only moderate cellular fluorescence”. The “cellular fluorescence signal” value ([3]; listed as targeted fluorochrome) was “strong fluorescence signal”, the “cellular fluorescence signal” value [4] was “little to no cellular fluorescence” and the “cellular fluorescence signal” value ([4]; listed as 17) was “no accumulation of the ligand; also recorded: do not bind the tracer”. For the same compound, the “mean (FMT-data)” value ([5]; MCF-7, block, 1 h) was 196.50, the “pmol (FMT-data)” value ([5]; MCF-7, block, 1 h) was 224.00 pmol and the “mean (FMT-data)” value ([5]; MCF-7, block, 3 h) was 66.50. For the same compound, the “pmol (FMT-data)” value ([5]; MCF-7, block, 3 h) was 274.50 pmol, the “mean (FMT-data)” value ([5]; MCF-7, block, 5 h) was 100.67 and the “pmol (FMT-data)” value ([5]; MCF-7, block, 5 h) was 201.67 pmol. The “mean (FMT-data)” value ([5]; MCF-7, block, 24 h) was 125.50, the “pmol (FMT-data)” value ([5]; MCF-7, block, 24 h) was 9.00 pmol and the “mean (FMT-data)” value ([5]; MCF-7, nativ, 1 h) was 148.00. The “pmol (FMT-data)” value ([5]; MCF-7, nativ, 1 h) was 599.00 pmol, the “mean (FMT-data)” value ([5]; MCF-7, nativ, 3 h) was 79.00 and the “pmol (FMT-data)” value ([5]; MCF-7, nativ, 3 h) was 339.00 pmol. The “mean (FMT-data)” value ([5]; MCF-7, nativ, 5 h) was 115.50, the “pmol (FMT-data)” value ([5]; MCF-7, nativ, 5 h) was 473.00 pmol and the “mean (FMT-data)” value ([5]; MCF-7, nativ, 24 h) was 207.67. For the same compound, the “pmol (FMT-data)” value ([5]; MCF-7, nativ, 24 h) was 33.00 pmol and the “fluorescence signal of tumor xenografts by FRI and FMT” value ([5]; MCF-7 xenografts, 2 nmol i.v.) was “high fluorescence signal yields”.
In the case of COc1ccc(C2(O)OC(=O)C(c3ccc4c(c3)OCO4)=C2Cc2cc(OC)c(OC)c(OC)c2)cc1 (stereo not drawn) [PD 156707, 3-benzo[1,3]dioxol-5-yl-5-hydroxy-5-(4-methoxyphenyl)-4-(3,4,5-trimethoxybenzyl)-5H-furan-2-one, reference compound], the “tumor fluorescence of ETAR-Cy 5.5 after predosing” value ([1]; predosing with unmodified ETAR antagonist) is reported as “significant decrease of tumor fluorescence”, the “blocking of the binding/signal of conjugate 17” value ([2]; HT-1080 cells (FIG. 4B), antibody 1.3 μg or tenfold excess PD 156707) is reported as “Blocking of the signal was possible” and the “blocking of the binding/signal of the Cy 5.5 conjugate” value ([3]; PD 156707 50 nmol (tenfold) or ETAR antibodies 1.3 μg) is reported as “could be blocked; also recorded: Blocking of the signal was possible”. The “cell behaviour at higher concentrations” value ([3]; conjugate and unlabelled antagonist up to 100 nmol) was “cells detached from the bottom of the flask”, the “myocardial signal of the fluorophore after pre-dosing” value (myocardial ETAR) was “significantly reduced” and the IC50 (endothelin receptors [6]) was 0.3 nM.
Compound “[^125I]ET-1: radioiodinated endothelin-1 radioligand (PerkinElmer)” has a Kd (endothelin receptors [7]) of 0.208 ± 0.002 nM.
With Cy 5.5 [reference compound] the “cellular fluorescence signal” value [2] was “Negligible signals”, the “cellular fluorescence signal” value [3] was “Negligible signals” and the “cellular fluorescence signal” value [4] was “Negligible signals”.
